Reference: patent publication US8158783B2, “MTP inhibiting tetrahydro-naphthalene-1-carboxylic acid derivatives” (Janssen Pharmaceutica N.V., priority 2006, dated 2012)

Key:
[1] = system: secretion of ApoB, HepG2 cells; assay: Quantification of the secretion of ApoB in HepG2 cells; assay type: cell-based; conditions: Homo sapiens, 24 hours of incubation, pIC50 = -log IC50
Method: HepG2 cells were cultured in 24-well plates in MEM Rega 3 containing 10% fetal calf serum. At 70% confluency, the medium was changed and the test compound or carrier (DMSO, 0.4% final concentration) was added. After 24 hours of incubation, the medium was transferred to Eppendorf tubes and cleared by centrifugation. A sheep antibody directed against either apoB was added to the supernatant and the mixture was kept at 8° C. for 24 hours. Then, rabbit anti-sheep antibody was added and the immune complex was allowed to precipitate for 24 hours at 8° C. The immunoprecipitate was pelleted by centrifugation for 25 minutes at 1320 g and washed twice with a buffer containing 40 mM Mops, 40 mM NaH2PO4, 100 mM NaF, 0.2 mM DTT, 5 mM EDTA, 5 mM EGTA, 1% Triton-X-100, 0.5% sodium deoxycholate (DOC), 0.1% SDS, 0.2 mM leupeptin and 0.2 mM PMSF. Radioactivity in the pellet was quantified by liquid scintillation counting.

MTP = MTP (Homo sapiens, UniProt P55157); assay: MTP assay (triglyceride transfer from donor to acceptor vesicles); assay type: biochemical; conditions: MTP activity, [14C]-triglyceride transfer between vesicles, 37° C.
Method: MTP activity was measured using an assay similar to one described by J. R. Wetterau and D. B. Zilversmit in Chemistry and Physics of Lipids, 38, 205-222 (1985). To prepare the donor and acceptor vesicles, the appropriate lipids in chloroform were put into a glass test tube and dried under a stream of N2. A buffer containing 15 mM Tris-HCl pH 7.5, 1 mM EDTA, 40 mM NaCl, 0.02% NaN3 (assay buffer) was added to the dried lipid. The mixture was vortexed briefly and the lipids were then allowed to hydrate for 20 min on ice. Vesicles were then prepared by bath sonication (Branson 2200) at room temperature for maximum 15 min. Butylated hydroxytoluene was included in all vesicle preparations at a concentration of 0.1%. The lipid transfer assay mixture contained donor vesicles (40 nmol phosphatidylcholine, 7.5 mol % of cardiolipin and 0.25 mol % glycerol tri[1-^14C]-oleate), acceptor vesicles (240 nmol phosphatidylcholine) and 5 mg BSA in a total volume of 675 μl in a 1.5 ml microcentrifuge tube. Test compounds were added dissolved in DMSO (0.13% final concentration). After 5 minutes of pre-incubation at 37° C., the reaction was started by the addition of MTP in 100 μl dialysis buffer. The reaction was stopped by the addition of 400 μl DEAE-52 cellulose pre-equilibrated in 15 mM Tris-HCl pH 7.5, 1 mM EDTA, 0.02% NaN3 (1:1, vol/vol). The mixture was agitated for 4 min and centrifuged for 2 min at maximum speed in an Eppendorf centrifuge (4° C.) to pellet the DEAE-52-bound donor vesicles. An aliquot of the supernatant containing the acceptor liposomes was counted and the [^14C]-counts were used to calculate the percent triglyceride transfer from donor to acceptor vesicles.

Sequence of MTP (P55157 19-894, species assumed): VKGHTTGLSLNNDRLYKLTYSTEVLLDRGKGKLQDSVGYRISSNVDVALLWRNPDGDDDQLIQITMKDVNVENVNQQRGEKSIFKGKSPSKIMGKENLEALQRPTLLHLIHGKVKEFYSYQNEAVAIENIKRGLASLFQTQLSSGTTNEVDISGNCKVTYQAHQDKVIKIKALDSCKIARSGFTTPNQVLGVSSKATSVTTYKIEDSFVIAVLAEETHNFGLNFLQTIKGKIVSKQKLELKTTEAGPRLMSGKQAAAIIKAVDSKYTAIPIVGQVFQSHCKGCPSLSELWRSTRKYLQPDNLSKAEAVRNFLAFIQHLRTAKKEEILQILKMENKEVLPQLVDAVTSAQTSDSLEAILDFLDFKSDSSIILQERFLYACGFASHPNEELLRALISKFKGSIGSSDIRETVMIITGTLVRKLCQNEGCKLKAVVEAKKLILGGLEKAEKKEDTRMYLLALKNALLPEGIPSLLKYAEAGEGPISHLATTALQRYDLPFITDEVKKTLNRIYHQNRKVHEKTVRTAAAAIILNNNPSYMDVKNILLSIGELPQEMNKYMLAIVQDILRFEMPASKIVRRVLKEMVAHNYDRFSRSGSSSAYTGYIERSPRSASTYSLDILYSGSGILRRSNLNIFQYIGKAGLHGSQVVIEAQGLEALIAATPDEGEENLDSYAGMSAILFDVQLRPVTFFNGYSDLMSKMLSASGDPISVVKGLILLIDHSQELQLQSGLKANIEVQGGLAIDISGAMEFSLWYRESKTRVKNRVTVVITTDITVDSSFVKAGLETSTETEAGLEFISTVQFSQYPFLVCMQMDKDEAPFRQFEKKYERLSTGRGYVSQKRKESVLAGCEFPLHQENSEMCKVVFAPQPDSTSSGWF
Sequence of MTP (P07237 18-508 partner, species assumed): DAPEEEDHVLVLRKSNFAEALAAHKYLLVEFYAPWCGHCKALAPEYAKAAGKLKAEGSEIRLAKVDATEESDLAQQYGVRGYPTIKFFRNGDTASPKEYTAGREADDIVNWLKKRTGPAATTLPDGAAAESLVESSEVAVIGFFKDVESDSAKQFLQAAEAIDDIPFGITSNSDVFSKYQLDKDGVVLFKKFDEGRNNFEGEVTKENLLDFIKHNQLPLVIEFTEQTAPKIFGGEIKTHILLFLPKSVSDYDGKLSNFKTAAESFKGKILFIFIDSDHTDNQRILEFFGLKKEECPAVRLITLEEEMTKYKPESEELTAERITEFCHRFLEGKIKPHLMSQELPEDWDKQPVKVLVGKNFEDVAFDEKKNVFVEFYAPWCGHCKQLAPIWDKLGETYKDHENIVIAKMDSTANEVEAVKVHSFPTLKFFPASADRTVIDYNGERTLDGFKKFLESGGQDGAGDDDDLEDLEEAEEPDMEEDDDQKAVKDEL

| IC50 [1] [nM] | IC50 (MTP) [nM] | Compound |
| --- | --- | --- |
| 23.2 | 6.34 | CCOC(=O)[C@]1(c2ccccc2)CC[C@@H](C(=O)N(C)CCCNC(=O)c2ccccc2-c2ccc(C(F)(F)F)cc2)c2ccccc21 [compound 12] |
| 309 | 61.8 | CCOC(=O)[C@]1(c2ccccc2)CC[C@H](C(=O)NCCCNC(=O)c2ccccc2-c2ccc(C(F)(F)F)cc2)c2ccccc21 [compound 18] |
| 240 | 48.2 | CCOC(=O)[C@]1(c2ccccc2)CC[C@H](C(=O)N(C)CCNC(=O)c2ccccc2-c2ccc(C(F)(F)F)cc2)c2ccccc21 [compound 21] |
| 415 | 37.3 | CCOC(=O)[C@]1(c2ccccc2)CC[C@H](C(=O)NCCCNC(=O)c2ccccc2OC)c2ccccc21 [compound 17] |
| > 1000 | 65.2 | COC(=O)CCNC(=O)[C@]1(c2ccccc2)CC[C@@H](C(=O)N(C)CCCNC(=O)c2ccccc2OC)c2ccccc21 [compound 31] |
| 192 | 9.38 | CCOC(=O)[C@]1(c2ccccc2)CC[C@@H](C(=O)NCCCNC(=O)c2ccccc2OC)c2ccccc21 [compound 5] |
| 746 | 10 | CCOC(=O)[C@]1(c2ccccc2)CC[C@@H](C(=O)N(C)CCCNC(=O)c2ccccc2)c2ccccc21 [compound 10] |
| > 1000 | 70.6 | CCOC(=O)[C@]1(c2ccccc2)CC[C@H](C(=O)N(C)CCNC(=O)c2ccccc2OC)c2ccccc21 [compound 20] |
|  | 1250 | CCOC(=O)[C@]1(c2ccccc2)CC[C@@H](C(=O)NCCNC(=O)c2ccccc2)c2ccccc21 [compound 1] |
| 662 | 16.4 | CCOC(=O)[C@]1(c2ccccc2)CC[C@H](C(=O)N(C)CCCNC(=O)c2ccccc2)c2ccccc21 [compound 22] |
| 104 | 40 | CCCOC(=O)[C@]1(c2ccccc2)CC[C@@H](C(=O)N2CCC(NC(=O)c3ccccc3OC)C2)c2ccccc21 (stereo partly shown) [compound 29] |
| 286 | 23 | CCCOC(=O)[C@]1(c2ccccc2)CC[C@@H](C(=O)N2CCCC(NC(=O)c3ccccc3OC)CC2)c2ccccc21 (stereo partly shown) [compound 42] |
| > 1000 | 27 | CCOC(=O)[C@]1(c2ccccc2)CC[C@@H](C(=O)N(C)CCNC(=O)c2ccccc2OC)c2ccccc21 [compound 8] |
|  | 406 | CCOC(=O)[C@]1(c2ccccc2)CC[C@@H](C(=O)NCCNC(=O)c2ccccc2OC)c2ccccc21 [compound 2] |
| > 1000 | 166 | COC(=O)CCNC(=O)[C@]1(c2ccccc2)CC[C@@H](C(=O)N(C)CCCNC(=O)c2cccnc2OC)c2ccccc21 [compound 32] |
|  | 5380 | CCOC(=O)[C@]1(c2ccccc2)CC[C@H](C(=O)NCCNC(=O)c2ccccc2)c2ccccc21 [compound 13] |
|  | 2490 | CCOC(=O)[C@]1(c2ccccc2)CC[C@H](C(=O)NCCNC(=O)c2ccccc2OC)c2ccccc21 [compound 14] |
| 17.3 | 6.52 | CCOC(=O)[C@@]1(c2ccccc2)CC[C@H](C(=O)NCCNC(=O)c2ccccc2OC)c2ccccc21 (stereo in doubt) [compound 25] |

| IC50 [1] [nM] | IC50 (MTP) [nM] | Compound |
| --- | --- | --- |
| > 1000 | 85.5 | CCOC(=O)[C@]1(c2ccccc2)CC[C@@H](C(=O)N(C)CCNC(=O)c2ccccc2)c2ccccc21 [compound 7] |
| 597 | 11.6 | CCOC(=O)[C@]1(c2ccccc2)CC[C@H](C(=O)N(C)CCCNC(=O)c2ccccc2OC)c2ccccc21 [compound 23] |
| 665 |  | CCOC(=O)[C@]1(c2ccccc2)CC[C@@H](C(=O)N(C)CCCNC(=O)c2ccccc2OC)c2ccccc21 [compound 11] |
| > 1000 | 80 | COC(=O)CCNC(=O)[C@]1(c2ccccc2)CC[C@@H](C(=O)N2CCCC(NC(=O)c3cccnc3OC)CC2)c2ccccc21 (stereo partly shown) [compound 33] |
|  | 208 | CCOC(=O)[C@]1(c2ccccc2)CC[C@@H](C(=O)NCCNC(=O)c2ccccc2-c2ccc(C(F)(F)F)cc2)c2ccccc21 [compound 3] |
|  | > 1000 | COC(=O)CCNC(=O)[C@]1(c2ccccc2)CC[C@@H](C(=O)N2CCOC(CNC(=O)c3cccnc3O)C2)c2ccccc21 (stereo partly shown) [compound 43] |
| 23.2 | 6.11 | CCOC(=O)[C@]1(c2ccccc2)CC[C@H](C(=O)N(C)CCCNC(=O)c2ccccc2-c2ccc(C(F)(F)F)cc2)c2ccccc21 [compound 24] |
| 317 | 22.2 | CCOC(=O)[C@]1(c2ccccc2)CC[C@@H](C(=O)NCCCNC(=O)c2ccccc2)c2ccccc21 [compound 4] |
| 42.7 | 9.59 | CCOC(=O)[C@]1(c2ccccc2)CC[C@@H](C(=O)NCCCNC(=O)c2ccccc2-c2ccc(C(F)(F)F)cc2)c2ccccc21 [compound 6] |
| 76.7 | 23.3 | CCCOC(=O)[C@]1(c2ccccc2)CCC(C(=O)N2CC[C@@H](NC(=O)c3cccnc3OC)C2)c2ccccc21 (stereo partly shown) [compound 30] |
| 560 | 173 | CCOC(=O)[C@]1(c2ccccc2)CC[C@@H](C(=O)NCCNC(=O)c2ccccc2OC)c2ccccc21 (stereo in doubt) [compound 26] |
|  | 52.8 | COC(=O)CCNC(=O)[C@]1(c2ccccc2)CC[C@@H](C(=O)N2CCCC(NC(=O)c3ccccc3OC)CC2)c2ccccc21 (stereo partly shown) [compound 44] |
| 95.9 | 7.18 | CCOC(=O)[C@@]1(c2ccccc2)CC[C@H](C(=O)N(C)CCCNC(=O)c2ccccc2OC)c2ccccc21 (stereo in doubt) [compound 28] |
| 791 | > 100 | CCOC(=O)[C@]1(c2ccccc2)CC[C@H](C(=O)NCCCNC(=O)c2ccccc2)c2ccccc21 [compound 16] |
| 128 | 19.1 | CCOC(=O)[C@]1(c2ccccc2)CC[C@@H](C(=O)N(C)CCNC(=O)c2ccccc2-c2ccc(C(F)(F)F)cc2)c2ccccc21 [compound 9] |
|  | 2750 | CCOC(=O)[C@]1(c2ccccc2)CC[C@H](C(=O)NCCNC(=O)c2ccccc2-c2ccc(C(F)(F)F)cc2)c2ccccc21 [compound 15] |
| 228 | 131 | CCOC(=O)[C@]1(c2ccccc2)CC[C@H](C(=O)N(C)CCNC(=O)c2ccccc2)c2ccccc21 [compound 19] |
